{
  "source": "patent US20020037872A1",
  "about": "“N6 heterocyclic 5' modified adenosine derivatives” (CV Therapeutics, Inc., priority 1999, published 2002)",
  "key": {"A1 adenosine receptor": {"biological_target": "T1, A1 adenosine receptor (Cavia porcellus, UniProt P47745)", "T1 construct": "The hearts were quickly removed and rinsed in ice-cold Krebs-Henseleit solution; from tissue; host or cells: guinea pig isolated perfused heart", "T1 sequence (P47745 1-326)": "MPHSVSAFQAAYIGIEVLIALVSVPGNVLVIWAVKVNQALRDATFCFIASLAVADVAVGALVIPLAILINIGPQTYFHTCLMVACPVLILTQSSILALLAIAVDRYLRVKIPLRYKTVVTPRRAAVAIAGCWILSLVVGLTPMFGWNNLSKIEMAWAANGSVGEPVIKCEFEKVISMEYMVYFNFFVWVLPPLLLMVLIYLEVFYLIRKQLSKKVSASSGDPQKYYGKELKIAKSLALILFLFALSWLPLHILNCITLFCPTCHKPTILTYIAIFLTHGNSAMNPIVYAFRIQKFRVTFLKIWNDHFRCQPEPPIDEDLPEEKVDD", "assay": "Guinea pig isolated perfused heart: S-H interval, heart rate, atrial MAP", "experimental": "Guinea pigs of either sex weighing 250-300 g were anesthetized with methoxyflurane and killed by cervical dislocation. The hearts were quickly removed and rinsed in ice-cold Krebs-Henseleit solution. The aorta was cannulated and the heart retrogradely perfused at a constant flow of 10 ml min^−1 with modified Krebs-Henseleit solution containing (mM): NaCL 117.9, KCl 4.8, CaCl2 2.5, MgSO4 1.18, KH2PO4 1.2, Na2EDTA 0.5, ascorbic acid 0.14, glucose 5.5, pyruvic acid (sodium salt) 2.0, and NaHCO3 25. The K—H solution was oxygenated with 95% oxygen and 5% CO2, pH 7.4, and temperature maintained at 36° C.\nHearts were electrically paced at a cycle length of 290-300 ms (unless otherwise indicated) using a bipolar electrode placed on the right atrium or ventricle. The stimulator, an interval generator (Model 1830, WPI, Sarasota, Fla., U.S.A.) delivered stimuli through a stimulus isolation unit (Model 1880, WPI) as square wave pulses of 3 ms in duration and at least twice the threshold intensity. The stimulus-to-His bundle (S—H) interval was used as index of AV nodal conduction time and was measured on-line during constant atrial pacing from microcomputer with a DT-208 1A interface board (Axon Instruments, Burlingame, Calif., U.S.A.) In experiments to study the chronotropic effect (effect on heart rate) of A1 AdoR agonists, the hearts were allowed to beat spontaneously. An atrial electrogram was used to record the electrical activity of the atria and to measure the heart rate.\nMonophasic action potentials (MAP) were recorded using a pressure contact silver-silver chloride electrode (Langendorf Probe, EP Technologies, Inc., Sunnyvale, Calif., U.S.A.) placed on the surface of the left atrium. […] Signals were considered adequate if they were stable for at least 5 min and the amplitudes of the MAPs exceeded 10 mV. The data were digitized at 2 kHz by a DT-2801A digitizing board (Data Translation, Marlboro, Mass., U.S.A.) and stored using the Snapshot data acquisition program (Snapshot Storage Scope, HEM Data Corp., Southfield, Mich., U.S.A.) for later analysis. The duration of the atrial monophasic action potential was measured at 90% repolarization (MAPD90), using the Snapshot program. After completion of dissection and instrumentation, the hearts were allowed to equilibrate for 30 min before the experiments were begun. Whenever the baseline and post-intervention (washout) values differed by more than 15% the data were discarded. Approximately 60-70% of the experiments conformed with this criteria."}, "A1 receptor": {"biological_target": "T2, A1 receptor (Mesocricetus auratus, UniProt A0A1U8BVR4)", "T2 construct": "endogenous in cells; host or cells: DDT1 (DDT1 MF-2) hamster vas deferens smooth muscle cells", "T2 sequence (A0A1U8BVR4 1-326)": "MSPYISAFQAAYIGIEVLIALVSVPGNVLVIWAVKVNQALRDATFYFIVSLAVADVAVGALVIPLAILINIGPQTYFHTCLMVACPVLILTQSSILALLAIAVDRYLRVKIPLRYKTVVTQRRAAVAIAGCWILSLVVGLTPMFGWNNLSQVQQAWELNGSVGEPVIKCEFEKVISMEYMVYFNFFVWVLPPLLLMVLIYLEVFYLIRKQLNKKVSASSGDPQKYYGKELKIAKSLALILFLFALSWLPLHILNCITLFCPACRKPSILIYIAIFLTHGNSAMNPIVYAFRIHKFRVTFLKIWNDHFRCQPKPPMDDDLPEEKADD", "assay": "Competitive binding assay, DDT1 cell membranes, [3H]CCPA", "set-up": "species or system hamster", "details": "[3H]CCPA 2 nM, DDT1 cell membranes; read-out: Ki-DDT1 cell membrane"}},
  "data": [
    {"smiles": "CNC(=O)OC[C@H]1O[C@@H](n2cnc3c(N[C@@H]4CCOC4)ncnc32)[C@H](O)[C@@H]1O", "note": "[Compound 6, (5-16[((3R)oxolan-3-yl)aminolpurin-9-yl)(3S,2R,4R,5R)-3,4dihydroxyoxolan-2yl)methoxyl-N-methylearboxamide]", "values": [
      {"measurement": "agonist character at A1 AdoR", "setting": "A1 adenosine receptor", "value": "true partial A1 AdoR agonist"},
      {"measurement": "antagonism of S-H interval prolongation caused by full agonist CPA", "setting": "A1 adenosine receptor; Compound 6 2 and 10 μm, atrial cycle length 300 msec, FIG. 3", "value": "antagonizes the negative dromotropic effect"},
      {"measurement": "effect on atrial monophasic action potential", "setting": "A1 adenosine receptor; FIG. 1 panel B", "value": "no effect"},
      {"measurement": "effect on AV nodal conduction time (S-H interval)", "setting": "A1 adenosine receptor; FIG. 1 panel C", "value": "concentration-dependent and significant increase in AV nodal conduction time"},
      {"measurement": "second-degree AV block", "setting": "A1 adenosine receptor; FIG. 1 panel C", "value": "without causing second-degree AV block at any concentration tested"},
      {"measurement": "EC50", "setting": "A1 adenosine receptor; guinea pig isolated perfused hearts, read-out: EC50 to prolong S-H interval (negative dromotropic effect)", "value": "2800 ± 1300", "unit": "nM"},
      {"measurement": "selectivity: S-H interval prolongation versus increase of coronary conductance", "setting": "A1 adenosine receptor; ratio of potencies", "value": "at least 10 fold"},
      {"measurement": "effect on heart rate (chronotropic)", "setting": "A1 adenosine receptor; spontaneously beating hearts, FIG. 1 panel A", "value": "did not slow heart rate"},
      {"measurement": "Ki", "setting": "A1 receptor", "value": 178, "unit": "nM"}
    ]}
  ]
}
